Measured values as given in PMC12763877 (Journal of Experimental & Clinical Cancer Research : CR, 2025).

Assays:
[1] = system: pathological choroidal neovascularization; parameters: method as in PMID 30208056; settings: mouse model; cited from earlier work
APLNR = target: T1, APLNR (Homo sapiens, UniProt P35414); parameters: expressed in transfected cells; host or cells: HEK293; settings: cited from earlier work
T1 sequence (P35414 1-380): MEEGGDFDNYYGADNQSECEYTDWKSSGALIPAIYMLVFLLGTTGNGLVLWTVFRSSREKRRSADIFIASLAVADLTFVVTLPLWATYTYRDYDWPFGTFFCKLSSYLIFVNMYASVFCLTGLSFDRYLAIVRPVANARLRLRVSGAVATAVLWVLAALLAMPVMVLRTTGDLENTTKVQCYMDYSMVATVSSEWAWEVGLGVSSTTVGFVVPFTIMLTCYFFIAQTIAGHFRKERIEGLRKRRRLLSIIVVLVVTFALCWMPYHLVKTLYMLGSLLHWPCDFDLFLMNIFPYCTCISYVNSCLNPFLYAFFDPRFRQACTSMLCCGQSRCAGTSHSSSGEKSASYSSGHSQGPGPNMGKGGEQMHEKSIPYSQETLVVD

zebrafish embryos = assay: Zebrafish embryo toxicity; assay type: in vivo, zebrafish (Danio rerio); settings: embryos exposed 12 to 48 hpf, survival
Protocol: Transgenic zebrafish Tg(flk: EGFP) were obtained from the China Zebrafish Resource Center and maintained at 28 ± 1 °C under a 14-hour light/10-hour dark cycle. […] Survival rates were recorded to calculate the median lethal concentration (LC₅₀). For the retinal angiogenesis assay, embryos at 1 day post fertilization (dpf) were transferred to E3 medium containing 5 mM CoCl₂·6 H₂O and 2.5 µg/mL GS4012 to induce hypoxia and abnormal vessel formation. At 3 dpf, test compounds were added and incubation continued until 5 dpf. Blank, model, and vehicle (≤ 0.1% DMSO) controls were included, with at least three replicates per group (n = 10–15 embryos). At 5 dpf, retinal vasculature was imaged using fluorescence microscopy and analyzed for branching number, vessel length, and density using ImageJ. Data are presented as mean ± standard deviation (SD) and analyzed using one-way ANOVA followed by Tukey’s post hoc test, with p < 0.05 considered statistically significant.
The zebrafish (Danio rerio) model was employed due to its distinct advantages, the optical transparency, which enable in vivo vascular visualization. […] Firstly, the 8 candidate compounds underwent preliminary toxicity evaluation in zebrafish embryos. […] At 48 hpf, the number of surviving embryos was quantified, and the lethal dose 50 (LD50) for each compound was determined based on the survival data. […]

HUVEC [2] = assay: DNA damage: γ-H2AX western blot and alkaline comet assay; assay type: cell-based, human
Protocol: (§1) Total protein was extracted using RIPA lysis buffer (Solarbio, China) supplemented with phenylmethylsulfonyl fluoride (PMSF; Thermo Fisher Scientific, USA), protease inhibitor cocktail (Roche, Switzerland), and phosphatase inhibitor cocktail (Roche, Switzerland). Protein concentration was determined using a BCA protein assay kit (Thermo Fisher Scientific, USA). Equal amounts of protein were separated by 10% SDS-polyacrylamide gel electrophoresis (SDS-PAGE) and transferred onto nitrocellulose (NC) membranes. […] All primary antibodies were purchased from Cell Signaling Technology (CST, USA), except for GAPDH, which was obtained from Proteintech (Wuhan, China). After washing, the membranes were incubated with HRP-conjugated goat anti-rabbit or anti-mouse IgG secondary antibodies (Biosharp, China) for 1 h at room temperature. Protein bands were visualized using an enhanced chemiluminescence (ECL) detection system and scanned using a chemiluminescence imaging system.

[3] = system: STING signaling pathway in HUVEC; assay: Western blot of STING pathway proteins; assay type: cell-based, human; settings: NAC 5 mM pretreatment 2 h + candesartan 15 µM 48 h
Protocol: as §1

HUVEC [4] = assay: Tube formation assay; assay type: cell-based, human; settings: candesartan 15, 7.5, 3.75 µM; sunitinib 2 µM
Protocol: The 96-well plate was coated with 50 µl matrix glue per well, and then HUVEC was inoculated into the 96-well plate coated with matrix glue with a density of 4 × 10^4 cells per well. Photos were taken with an optical microscope (Nikon, China) after culture at 37℃ and 5% CO2 for 6–8 h, and the length of the generated blood vessels was analyzed using ImageJ.

HUVEC [5] = assay: Wound healing and Transwell assays; assay type: cell-based, human; settings: candesartan 15, 7.5, 3.75 µM; sunitinib 2 µM; 48 h
Protocol: HUVEC cells were digested and inoculated into 6-well plates, with 1 × 10^5 cells added to each hole. On the second day, the gun head was drawn vertically along the edge of the upper lid of the hole plate. The cells were washed twice with PBS, the scratched cells were removed, and the serum free medium containing drugs was added. The photos were taken and recorded under the microscope for 0 h and cultured in a 5% CO2 incubator at 37℃. After 48 h, the sample was taken and photographed for recording. The cell scratch area was calculated with Image J software.
Migration assays were performed using the Transwell cell culture insert. HUVEC (3 × 10^4 cells) were suspended with 100µL serum-free medium containing different concentrations of compounds and placed in the upper layer of the Transwell cell culture insert, and 300µL medium containing 10% FBS was placed below the cell-permeable membrane. Following an incubation (48 h), the cells that had migrated through the membrane were stained with 0.2% crystal violet for 30 min and count.

[6] = system: FAK-MMP9 signaling in HUVEC; assay: Western blot of FAK and MMP-9; assay type: cell-based, human
Protocol: as §1

Structure (SMILES): CCN(CC)Cc1cc(Nc2ccnc3cc(Cl)ccc23)ccc1O [Amodiaquine]
- Pathological choroidal neovascularization [1]: reduces pathological choroidal neovascularization
- Inhibition of APLN/APLNR signaling (APLNR): inhibits APLN/APLNR signaling in a concentration-dependent manner

Structure (SMILES): CSCC[C@H](NC(=O)[C@@H]1CCCN1C(=O)CNC(=O)[C@H](CCCCN)NC(=O)[C@H](Cc1c[nH]cn1)NC(=O)[C@H](CO)NC(=O)[C@H](CC(C)C)NC(=O)[C@H](CCCNC(=N)N)NC(=O)[C@@H]1CCCN1C(=O)[C@H](CCCNC(=N)N)NC(=O)[C@@H](N)CCC(N)=O)C(=O)N1CCC[C@H]1C(=O)N[C@@H](C)C(=O)O [Compound F13A]
- LD50(µM,48 h) (zebrafish embryos): 2.85 ± 0.31 µM

Structure (SMILES): CC(=O)N[C@@H](CS)C(=O)O [NAC, N-acetylcysteine]
- Effect on candesartan-induced γ-H2AX expression (HUVEC [2]; NAC 5 mM + candesartan 15 µM): significantly reduced γ-H2AX expression
- Effect on candesartan-induced DNA damage (comet assay) (HUVEC [2]; NAC 5 mM pre-treatment + candesartan 15 µM): effectively mitigate candesartan-induced DNA damage
- Effect on candesartan-induced STING pathway upregulation [3]: attenuated candesartan-induced upregulation of STING pathway components

Structure (SMILES): CCN(CC)CCNC(=O)c1c(C)[nH]c(/C=C2\C(=O)Nc3ccc(F)cc32)c1C [Sunitinib]
- Tube formation: mean mesh size and total mesh area (HUVEC [4]): increase the mean mesh and the total meshe area
- Tube formation: number of junctions, total segment length, number of meshes (HUVEC [4]): significantly reduced the number of junctions, total segment length, and the number of meshes
- Migratory and invasive capacities of HUVECs (HUVEC [5]): significantly reduced the migratory and invasive capacities of HUVECs
- Expression of MMP9 and FAK [6]: significantly decreased the expression of MMP9 and FAK
